Results: patent US12391768B2, “Antibodies to ticagrelor and methods of use” (MEDIMMUNE LIMITED, priority 2014, dated 2025)

B1: TICA0072: parent anti-ticagrelor/TAM antibody; VH SEQ ID NO:32, VL SEQ ID NO:37 (antibody, listed as Homo sapiens, V domains shown)
VH: QVQLQESGAEVKKPGSSVRVSCKASGGTFDSYSIHWVRQAPGQGLEWMGGIIPAFGTLSSAQDFQARVTISADKSTSTAYMELSGLRSEDTAVYYCARGSHLYDFWSASHPPNDALAIWGQGTLVTVSS
VL: QSVVTQPPSVSAAPGQKVTISCSGSNSDIGNNYVSWYQQLPGTAPKLLIYDNNKRPSGIPDRFSGSKSGTSATLAITGLQAGDEADYYCGTWDISLSAGLFGGGTKVTVL

Experiments:
TICA0162 Fab = assay: HTRF competition binding selectivity assay, TICA0162 His-Fab; set-up: species or system human; details: Table 7, DMSO normalised; 5 nM biotinylated ticagrelor, 1 nM His Fab; read-out: IC50 (uM) for inhibition of biotinylated ticagrelor binding to TICA0162 Fab
Method: (§1) Total Binding control wells were set up which contained all of the assay components above except that 5 ul assay buffer was added in place of the test selectivity compound addition. Negative Binding control wells were set up which contained all of the assay components included in the Total Binding control wells except that 5ul assay buffer was added in place of the His-Fab addition. Test compound serial titrations were either ½ or ⅓ depending on the particular experiment and top final assay compound concentrations were optimized on a compound specific basis. The concentration of biotinylated ticagrelor and His-Fab was optimized on a Fab specific basis in separate experiments. For the four Fabs investigated at the end of the lead isolation phase (TICA0010, TICA0049, TICA0053 and TICA0072) the final assay reagent concentrations used are set out in Table 1 below:
For the two Fabs investigated at the end of the lead optimization phase (TICA0162 and TICA0212) the final assay reagent concentrations used were 5nM biotinylated ticagrelor and 1 nM His Fab in both cases. […] In order to enable subsequent normalization of data to correct for any such vehicle related effects parallel titrations of DMSO alone were included in most experiments in which the final assay DMSO concentrations mirrored those of the test compound serial dilutions. At the end of the set up procedure that assay was incubated for 3hrs at RT before being read on an Envision plate reader using a standard read protocol. […]
(§2) In those experiments where DMSO normalization was applied DMSO normalised % Specific Binding was calculated essentially according to the equation above except that in this case Total Binding Delta F was taken from wells containing all of the components in the Total Binding control wells as well as DMSO at a concentration equivalent to that in the relevant sample well.

[1] = Total plasma concentration of ticagrelor and TAM (LC-MS/MS); assay type: in vivo, mice; details: Example 12
Method: Blood samples were collected in tubes with EDTA anticoagulant and centrifuged for 5 min at 10000× g at room temperature to prepare plasma. The plasma concentration of ticagrelor and TAM were determined by protein precipitation and liquid chromatography with tandem mass spectrometry (LC-MS/MS) as described in published method [Sillén H., et al., J Chromatogr B Analyt Technol Biomed Life Sci 2010; 878: 2299-306] with the following deviations. Plasma, 50 μL, was protein precipitated with 180 μl internal standard (D7-ZD6140) in acetonitrile. The liquid chromatographic system and mass spectrometer was an Acquity Ultra Performance LC coupled to a Xevo TQ-S mass spectrometer from Waters. Chromatographic separation was achieved on an Aquity UPLC® BEH C18 column (2.1×50 mm, particle size 1.7 um). Negative electrospray ionization was utilized. Eluent A was water with 10 mmol/L ammonium acetate, pH5 and eluent B was acetonitrile with 10 mmol/L ammonium acetate. Injection volume was 1 to 5 μL and the analytical gradient started with 4% B, increasing to 95% in 1.5 min, remaining until 2.3 min, before returning to initial conditions within 2.4 min followed by 0.3 min re-equilibration. No quality control samples were used in the analysis. The lower limit of quantification (LLOQ) was 0.005 μmol/L and the calibration range was 0.005 to 15.0 μM.
The total plasma concentrations of ticagrelor and TAM in presence of TICA0212/MEDI2452 were determined by adding 1% formic acid (FA: Sample, 1:5) followed by protein precipitation and LC-MS/MS as described above. Formic acid was added to the sample to facilitate dissociation of ticagrelor and TICA0212/MEDI2452.

TICA0053 Fab = assay: HTRF competition binding selectivity assay, TICA0053 His-Fab; set-up: species or system human; details: first series (Table 2), not DMSO normalised; read-out: IC50 (uM) for inhibition of biotinylated ticagrelor binding to TICA0053 his-Fab
Method: as §1
(§3) For the two Fabs investigated at the end of the lead optimization phase (TICA0162 and TICA0212) the final assay reagent concentrations used were 5nM biotinylated ticagrelor and 1 nM His Fab in both cases. […] In order to enable subsequent normalization of data to correct for any such vehicle related effects parallel titrations of DMSO alone were included in most experiments in which the final assay DMSO concentrations mirrored those of the test compound serial dilutions. At the end of the set up procedure that assay was incubated for 3hrs at RT before being read on an Envision plate reader using a standard read protocol.
(§4) The negative ratio value used in the calculation of % Delta F was derived from the Negative Binding control wells. % Delta F values were then used to calculate % Specific Binding values according to the equation below: Specific Binding (%)={(Sample Delta F−Negative Binding Delta F)/(Total Binding Delta F−Negative Binding Delta F)}×100
(§5) For standard calculations of % Specific Binding Total Binding Delta F was taken from Total Binding control wells which contained all of the aforementioned components of the assay but without inclusion of any competing test compound.
as §2

P2Y12 = P2Y12 (Homo sapiens, UniProt Q9H244); details: cited from earlier work
TICA0212 Fab = assay: HTRF competition binding selectivity assay, TICA0212 His-Fab; set-up: species or system human; details: Table 7, DMSO normalised; 5 nM biotinylated ticagrelor, 1 nM His Fab; read-out: IC50 (uM) for inhibition of biotinylated ticagrelor binding to TICA0212 Fab
Method: as §1
For the two Fabs investigated at the end of the lead optimization phase (TICA0162 and TICA0212) the final assay reagent concentrations used were 5nM biotinylated ticagrelor and 1 nM His Fab in both cases. […] At the end of the set up procedure that assay was incubated for 3hrs at RT before being read on an Envision plate reader using a standard read protocol. […]

TICA0049 Fab = assay: HTRF competition binding selectivity assay, TICA0049 His-Fab; set-up: species or system human; details: second series (Table 3), DMSO normalised; read-out: IC50 in competition binding selectivity studies, TICA0049
Method: as §1, §3, §4, §5, §2
(§6) In a second series of experiments further selectivity data was generated for TICA0049 and TICA0072 Fabs in which a subset of four of the twelve compounds listed in FIG. 4 were retested along with ticagrelor, TAM and TIM and several adenosine related compounds. Here, in a refinement to the earlier investigations in Table 2, experiments were designed in order to enable normalisation of percent specific binding values to correct for any non-specific vehicle related effects due to DMSO. Example plotted data from this second series of experiments is shown in FIG. 5A-F along with tabulated IC50 values in Table 3.

TICA0072 Fab = assay: HTRF competition binding selectivity assay, TICA0072 His-Fab; set-up: species or system human; details: second series (Table 3), DMSO normalised; read-out: IC50 in competition binding selectivity studies, TICA0072
Method: as §1, §3, §4, §5, §2, §6

[2] = cited from earlier work
TICA0010 Fab = assay: HTRF competition binding selectivity assay, TICA0010 His-Fab; set-up: species or system human; details: first series (Table 2), not DMSO normalised; read-out: IC50 (uM) for inhibition of biotinylated ticagrelor binding to TICA00l0 his-Fab
Method: as §1, §3, §4, §5, §2

[3] = HTRF HTS of periplasmic scFv, Assay 3 versus Assay 1; assay type: binding; details: 30 nM biotinylated ticagrelor, 50-fold excess (1500 nM) unmodified ticagrelor
Description: Using known techniques, a human scFv phage display library was used to generate scFv antibodies, and specific scFvs were isolated from the library in a series of repeated selection cycles on biotinylated ticagrelor with deselection on biotinylated adenosine, essentially as described in Lloyd et al 2009 PEDS 22: 159-168, incorporated herein by reference. A number of individual clones from the round 2 and round 3 selection outputs were selected, seFvs were expressed in the bacterial periplasm and screened for specificity in three parallel biochemical assays. […]
Assays 1, 2, and 3 were performed using the same general techniques and strategy. […] HTRF® (homogeneous time resolved fluorescence) is based upon the principle of TR-FRET (time resolved fluorescence resonance energy transfer). […] Provided the donor and acceptor fluorophores are in sufficiently close proximity (approx. <10 nm), the excitation of the Europium cryptate donor (337 nm) results in a transfer of energy to the XL^665 acceptor which in turn emits a fluorescence signal at 665 nm. […]
Raw 665 nm and 620 nm counts were first converted into 665 nm/620 nm ratio values and subsequently results were expressed as Delta F (%) values. Delta F was calculated according to the following equation: Delta F (%)={((sample 665/620 ratio)−(negative 665/620) ratio))/(negative 665/620 ratio)}×100 […]

[4] = target: TICA0159 IgG binding to biotinylated ticagrelor; assay: Second generation HTRF epitope competition assay
Method: Purified parent TICA0072 (scFv or Fab) was used as a benchmark in all experiments such that improvements in IC50 measured with optimized variants (scFv or Fab) could be expressed as fold improvements over parent TICA0072. Total Binding Control Wells contained all assay components except that 5 ul assay buffer was added in place of the purified scFv or Fab sample. Negative Binding control wells contained all of the components of the Total Binding control wells except that 5 ul of assay buffer was added in place of the TICA0072 IgG.
In both single point HTS and multipoint IC50 profiling versions of the assay. plates were incubated for 3 hrs at RT before being read on an Envision plate reader using a standard HTRF read protocol in which samples are excited at 337 nm and time resolved fluorescence emission is measured at both 620 nm and 665 nM.
Raw 665 nm and 620 nm counts were used to calculate Delta F (%) and % Specific Binding according to the equations described earlier in Assays 1 and 4, respectively. For multipoint secondary profiling experiments IC50 values were determined using Graphpad Prism software using sigmoidal dose response (variable slope) curve fitting (4 parameter logistic equation).
This assay was used only in multipoint IC50 profiling format (as opposed to HTS format) and was performed essentially identically to the method given in Assay 5 (above) for multipoint IC50 profiling of purified Fab variants in the parent TICA0072 IgG based epitope competition assay. The only difference being that TICA0159 IgG was used in place of TICA0072 IgG at the appropriate point in the assay set up but at the same 16nM final assay concentration. In all other respects this assay was performed exactly as described above in the multipoint secondary profiling version for purified Fab.

Chain of P2Y12 (Q9H244 whole entry): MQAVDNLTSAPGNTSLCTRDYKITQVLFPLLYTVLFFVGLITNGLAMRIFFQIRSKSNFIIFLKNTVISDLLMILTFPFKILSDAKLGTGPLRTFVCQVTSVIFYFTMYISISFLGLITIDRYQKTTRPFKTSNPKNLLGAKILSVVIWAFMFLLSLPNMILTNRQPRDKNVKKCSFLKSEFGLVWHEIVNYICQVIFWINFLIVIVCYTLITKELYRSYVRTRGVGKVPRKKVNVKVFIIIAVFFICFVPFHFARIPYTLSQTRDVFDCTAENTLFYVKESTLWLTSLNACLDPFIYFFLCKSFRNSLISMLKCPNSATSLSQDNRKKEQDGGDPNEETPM

Molecule | IC50 (TICA0162 Fab) [µM] | mean total plasma concentration ([1]; end of ticagrelor infusion 300 μg/kg/min 20 min, mice) [µM] | mean total plasma concentration at time of tail cut ([1]; vehicle treated mice, t=30 minutes) [µM] | IC50 (TICA0053 Fab) [µM] | P2Y12 antagonist activity (P2Y12) | IC50 (TICA0212 Fab) [µM] | IC50 (TICA0049 Fab) [nM] | IC50 (TICA0072 Fab) [nM] | circulating half-life ([2]; human, in vivo) [h] | concentration as % of the parent ticagrelor concentration ([2]; patients on BRILINTA/BRILIQUE) | IC50 (TICA0010 Fab) [µM] | % inhibition of binding observed in Assay 3 versus Assay 1 [3] [%] | IC50 ([4]; Fab, 16 nM TICA0159 IgG, 1 nM biotinylated ticagrelor) [nM] | Fold Improved ([4]; IC50 relative to parent TICA0072 Fab)
CCCSc1nc(N[C@@H]2C[C@H]2c2ccc(F)c(F)c2)c2nnn([C@@H]3C[C@H](O)[C@@H](O)[C@H]3O)c2n1 [TAM] | 0.032 | 0.3 | 0.6 | 0.134 | equally effective | 0.031 | 366 | 483 | 12 | 30-40% | 0.124 | – | – | –
B1 | – | – | – | – | – | – | – | – | – | – | – | > 90 | 1710 | 0
